Measurements taken from paper PMC6365497, “2-aminoimidazoles collapse mycobacterial proton motive force and block the electron transport chain” (Scientific Reports, 2019).
Values after ≈ are worked out from the molar mass of the structure shown. Values joined by “and” are separate entries in the source; they are usually repeats but may differ in a detail not shown here. Identical values can stand only once. “Also recorded” adds a separate entry of the source. Like-named read-outs stand apart in the source and are kept apart here.

Tests used:
M. smegmatis IMVs [1] = test: Determination of ΔpH collapse with IMVs (ACMA); conditions: for ΔpH collapse: Acute (≤ 2 h)
M. tuberculosis [2] = test: Kinetic measurement of alamarBlue reduction; assay type: cell-based, Mycobacterium tuberculosis
M. smegmatis IMVs [3] = test: ETC activity assay with IMVs (INT reduction); assay type: biochemical
M. tuberculosis [4] = test: microbe, parasite or virus in culture; assay type: cell-based, Mycobacterium tuberculosis
M. tuberculosis [5] = test: β-lactam potentiation assay; assay type: cell-based, Mycobacterium tuberculosis
M. tuberculosis [6] = test: Quantification of intracellular ATP
[7] = tested on: M. tuberculosis H37Rv mc^2 6206; assay type: cell-based, Mycobacterium tuberculosis; conditions: for NADH/NAD+ ratio: Low (≤ 62.5 µM) 2B8
[8] = tested on: M. tuberculosis mc^2 6206; assay type: cell-based, Mycobacterium tuberculosis; conditions: for Concentration up to which OCR increased (levelling off): stepwise increments
M. smegmatis [9] = test: Determination of Δψ collapse by DisC3(5); assay type: cell-based; conditions: for Δψ collapse: Acute (≤ 2 h)
M. smegmatis IMVs [10] = test: NADH oxidation by IMVs; assay type: biochemical
M. smegmatis IMVs [11] = assay type: biochemical
M. smegmatis [12] = test: Kinetic measurement of alamarBlue reduction
[13] = tested on: mycobacterial cell membrane; conditions: prolonged incubation (24 h); cited from earlier work
M. smegmatis [14] = test: MIC against M. smegmatis; assay type: cell-based
M. tuberculosis [15] = tested on: M. tuberculosis; parameters: method as in PMID 28749949; conditions: cited from earlier work
[16] = Low (≤ 62.5 µM) 2B8, Delayed (> 2 h)
[17] = Low (≤ 62.5 µM) 2B8, Acute (≤ 2 h)
[18] = M. tuberculosis, compound at 50% of its MIC, MIC of β-lactam / MIC of β-lactam plus drug
[19] = High (> 62.5 µM) 2B8, Acute (≤ 2 h)
[20] = M. tuberculosis, stepwise increasing concentration, media without BSA

Compound: CSc1ccc2c(c1)N(CCC1CCCCN1C)c1ccccc1S2 (stereo not shown) [TRZ, thioridazine, reference compound]
- ΔpH collapse (summary) (M. smegmatis IMVs [1]; Table S2 summary): S t r o ng
- alamarBlue reduction (summary) (M. tuberculosis [2]; Table S2 summary, mycobacteria): S t r o ng ↓
- ETC activity (INT reduction at 490 nm) (M. smegmatis IMVs [3]): none and potent and intermediate
- ETC activity (summary) (M. smegmatis IMVs [3]; Table S2 summary): S t r o ng ↓
- MIC (M. tuberculosis [4]; Mycobacterium tuberculosis, read-out: MIC (MIC95)): 62.5 µM (≈ 23.2 µg/mL)
- Fold potentiation of Carbenicillin (M. tuberculosis [5]): 16x
- Fold potentiation of Meropenem (M. tuberculosis [5]): 32x
- β-lactam potentiation (summary) (M. tuberculosis [5]; Table S2 summary): Intermediate ↑
- [ATP]i (summary) (M. tuberculosis [6]; Table S2 summary): S t r o ng ↓
- NADH/NAD+ ratio (summary) [7]: S t r o ng ↑
- NADH/NAD^+ ratio [7]: increased
- Effect on oxygen consumption rate (OCR) [8]: significantly increased M. tuberculosis OCR
- Δψ collapse (summary) (M. smegmatis [9]; Table S2 summary): Intermediate
- Effect on NADH oxidation (fluorescence decay 340ex/460em) (M. smegmatis IMVs [10]): significantly slowed down
- NADH oxidation (summary) (M. smegmatis IMVs [10]; Table S2 summary): S t r o ng ↓
- Restoration of inhibited NADH oxidation by CFZ (M. smegmatis IMVs [11]): not altered by CFZ
- Rescue by CFZ (summary) (M. smegmatis IMVs [11]; Table S2 summary): No

Compound: carbonyl cyanide m-chlorophenyl hydrazine [CCCP, reference compound]
- ΔpH collapse (summary) (M. smegmatis IMVs [1]): Intermediate
- alamarBlue reduction (M. tuberculosis [2]): inhibited
- alamarBlue reduction (summary) (M. tuberculosis [2]): Weak ↓
- ETC activity (INT reduction at 490 nm) (M. smegmatis IMVs [3]): tendency to increase ETC activity
- ETC activity (summary) (M. smegmatis IMVs [3]): Weak ↑
- MIC (M. tuberculosis [4]; read-out: MIC (MIC95)): 20 µM
- Fold potentiation of Carbenicillin (M. tuberculosis [5]): 9.6x
- Fold potentiation of Meropenem (M. tuberculosis [5]): 16x
- β-lactam potentiation (summary) (M. tuberculosis [5]): Intermediate ↑
- alamarBlue reduction (M. smegmatis [12]): inhibited
- [ATP]i (summary) (M. tuberculosis [6]): Intermediate ↓
- NADH/NAD+ ratio (summary) [7]: N o effect
- NADH/NAD^+ ratio [7]: did not increase
- Effect on oxygen consumption rate (OCR) [8]: bell-shaped, dose-response effect
- O2 consumption rate (summary) [8]: ↑ t he n ↓
- Δψ collapse (summary) (M. smegmatis [9]): S t r o ng
- Effect on NADH oxidation (fluorescence decay 340ex/460em) (M. smegmatis IMVs [10]): tendency to accelerate NADH oxidation
- NADH oxidation (summary) (M. smegmatis IMVs [10]): Weak ↑
- Rescue by CFZ (summary) (M. smegmatis IMVs [11]): N o effect

Compound: CCCCCCC(CCCCCC)NC(=O)CCCc1cnc(N)[nH]1 [2B8]
- Effect on ΔpH, ACMA fluorescence reversal (M. smegmatis IMVs [1]): collapsed the ΔpH
- ΔpH collapse (M. smegmatis IMVs [1]; High (> 62.5 µM) 2B8): S t r o ng
- ΔpH collapse (M. smegmatis IMVs [1]; Low (≤ 62.5 µM) 2B8): Low- Strong
- ΔpH collapse (summary) (M. smegmatis IMVs [1]; Table S2 summary): S t r o ng
- alamarBlue reduction (M. tuberculosis [2]): inhibited
- alamarBlue reduction (M. tuberculosis [2]; [16]): N o effect
- alamarBlue reduction (M. tuberculosis [2]; M. tuberculosis, 2B8 62.5 µM): not
- alamarBlue reduction (summary) (M. tuberculosis [2]; Table S2 summary, mycobacteria): S t r o ng ↓
- ETC activity (INT reduction at 490 nm) (M. smegmatis IMVs [3]): potently inhibited
- ETC activity (M. smegmatis IMVs [3]; [17]): N o effect
- Concentration with inhibitory effect on the ETC (M. smegmatis IMVs [3]; M. smegmatis IMVs): ≥ 78 µM
- ETC activity (summary) (M. smegmatis IMVs [3]; Table S2 summary): S t r o ng ↓
- MIC (M. tuberculosis [4]): 250 to 500 µM and 250 µM
- Concentration causing catastrophic cell membrane disruption [13]: ≥ 125 µM
- Fold potentiation of Carbenicillin (M. tuberculosis [5]; [18]): 64x
- Fold potentiation of Meropenem (M. tuberculosis [5]; [18]): 64x
- β-lactam potentiation (summary) (M. tuberculosis [5]; Table S2 summary): S t r o ng ↑
- alamarBlue reduction (M. smegmatis [12]): inhibited
- [ATP]i (M. tuberculosis [6]; [19]): N o effect
- [ATP]i (M. tuberculosis [6]; [17]): N o effect
- [ATP]i (M. tuberculosis [6]; [16]): N o effect- ↓
- [ATP]i (summary) (M. tuberculosis [6]; Table S2 summary): S t r o ng ↓
- MIC (M. smegmatis [14]; M. smegmatis, +0.5% BSA): 125 to 250 µM
- MIC (M. smegmatis [14]; M. smegmatis, No BSA): 62.5 µM (≈ 21.9 µg/mL)
- MIC (MIC95) (M. tuberculosis [15]): 250 µM
- NADH/NAD^+ ratio [7]: significantly increased; also recorded: persisted
- NADH/NAD+ ratio ([7]; Acute (≤ 2 h)): N o effect- ↑
- NADH/NAD+ ratio ([7]; Delayed (> 2 h)): N o effect- ↑
- NADH/NAD+ ratio (summary) ([7]; Table S2 summary): S t r o ng ↑
- O2 consumption rate [8, 19]: ↓ to basal
- Concentration required to decrease OCR ([8]; M. tuberculosis): ≥ 93 µM
- OCR versus basal OCR ([8]; M. tuberculosis, 250 µM 2B8 (highest tested concentration)): no statistical difference
- Effect on oxygen consumption rate (OCR) [8, 20]: OCR increased
- Concentration up to which OCR increased (levelling off) ([8]; M. tuberculosis): 62.5 µM
- O2 consumption rate (summary) ([8]; Table S2 summary): ↑ t he n ↓
- Effect on Δψ (membrane potential), DiSC3(5) fluorescence reversal (M. smegmatis [9]): rapidly depolarized the membrane potential
- Δψ collapse (M. smegmatis [9]; High (> 62.5 µM) 2B8): S t r o ng
- Δψ collapse (M. smegmatis [9]; Low (≤ 62.5 µM) 2B8): S t r o ng
- Δψ collapse (summary) (M. smegmatis [9]; Table S2 summary): S t r o ng
- Effect on NADH oxidation (fluorescence decay 340ex/460em) (M. smegmatis IMVs [10]): significantly inhibited
- NADH oxidation (M. smegmatis IMVs [10]; [17]): N o effect
- Concentration at which NADH oxidation is significantly inhibited (M. smegmatis IMVs [10]; M. smegmatis IMVs): greater than 62.5 µM
- NADH oxidation (summary) (M. smegmatis IMVs [10]; Table S2 summary): S t r o ng ↓
- Restoration of inhibited NADH oxidation by CFZ (M. smegmatis IMVs [11]; M. smegmatis IMVs treated with 5 mM KCN, 80 µM TRZ or 125 µM 2B8, 42 µM CFZ added): also restored by CFZ
- Rescue by CFZ (summary) (M. smegmatis IMVs [11]; Table S2 summary): Partial

Compound: COc1nc2ccc(Br)cc2cc1[C@@H](c1ccccc1)[C@@](O)(CCN(C)C)c1cccc2ccccc12 [BDQ, bedaquiline, reference compound]
- ΔpH collapse (summary) (M. smegmatis IMVs [1]; Table S2 summary): Intermediate
- alamarBlue reduction (summary) (M. tuberculosis [2]; Table S2 summary, mycobacteria): N o effect
- ETC activity (summary) (M. smegmatis IMVs [3]; Table S2 summary): N o effect
- MIC (M. tuberculosis [4]; Mycobacterium tuberculosis, M. tuberculosis, read-out: MIC (MIC95)): 0.125 µM (≈ 0.0694 µg/mL)
- Fold potentiation of Carbenicillin (M. tuberculosis [5]; [18]): 4x
- Fold potentiation of Meropenem (M. tuberculosis [5]; [18]): 4x
- β-lactam potentiation (summary) (M. tuberculosis [5]; Table S2 summary): Weak ↑
- [ATP]i (summary) (M. tuberculosis [6]; Table S2 summary): S t r o ng ↓
- NADH/NAD^+ ratio [7]: increased
- NADH/NAD+ ratio (summary) ([7]; Table S2 summary): Intermediate ↑
- Effect on oxygen consumption rate (OCR) [8, 20]: significantly increased M. tuberculosis OCR
- Concentration up to which OCR increased (levelling off) ([8]; M. tuberculosis): 9 µM
- Δψ collapse (summary) (M. smegmatis [9]; Table S2 summary): N o effect
- Effect on NADH oxidation (fluorescence decay 340ex/460em) (M. smegmatis IMVs [10]): inhibited
- NADH oxidation (summary) (M. smegmatis IMVs [10]; Table S2 summary): Intermediate ↓

Compound: CCCCCCCCCCCCCNC(=O)CCCc1cnc(N)[nH]1 [RA13]
- ΔpH collapse (summary) (M. smegmatis IMVs [1]): Weak
- alamarBlue reduction (M. tuberculosis [2]): did not have an effect
- alamarBlue reduction (summary) (M. tuberculosis [2]): N o effect
- ETC activity (INT reduction at 490 nm) (M. smegmatis IMVs [3]): only affected INT reduction in the presence of both substrates
- ETC activity (summary) (M. smegmatis IMVs [3]): Weak ↓
- MIC (M. tuberculosis [4]): > 1000 µM
- Fold potentiation of Carbenicillin (M. tuberculosis [5]): 1.5x
- Fold potentiation of Meropenem (M. tuberculosis [5]): 2x
- β-lactam potentiation (summary) (M. tuberculosis [5]): M a r g in a l ↑
- alamarBlue reduction (M. smegmatis [12]): did not have an effect
- [ATP]i (summary) (M. tuberculosis [6]): N o effect
- MIC (M. smegmatis [14]): > 1000 µM
- NADH/NAD+ ratio (summary) [7]: N o effect
- NADH/NAD^+ ratio [7]: inactive
- Effect on oxygen consumption rate (OCR) [8]: minimal changes in OCR
- O2 consumption rate (summary) [8]: Weak ↑
- Effect on Δψ (membrane potential), DiSC3(5) fluorescence reversal (M. smegmatis [9]): no effect
- Δψ collapse (summary) (M. smegmatis [9]): N o effect
- Effect on NADH oxidation (fluorescence decay 340ex/460em) (M. smegmatis IMVs [10]): did not have any effect
- NADH oxidation (summary) (M. smegmatis IMVs [10]): N o effect

Compound: C[C@@H](O)[C@H]1C(=O)N2C(C(=O)O)=C(S[C@@H]3CN[C@H](C(=O)N(C)C)C3)[C@H](C)[C@H]12 [Meropenem]
- MIC (MIC95) (M. tuberculosis [15]): 8 µg/mL

Compound: CC1(C)S[C@@H]2[C@H](NC(=O)C(C(=O)O)c3ccccc3)C(=O)N2[C@H]1C(=O)O (stereo partly shown) [Carbenicillin]
- MIC (MIC95) (M. tuberculosis [15]): 1000 µg/mL
